Our source for the Ki and Km values is PMC6079084, “Capacity for instantaneous catabolism of preferred and non-preferred carbon sources in Escherichia coli and Bacillus subtilis” (Scientific Reports, 2018).

As a reminder, the Ki is the dissociation constant of the complex between target and ligand, obtained from inhibition or displacement. The term Km denotes the concentration of substrate that gives half-maximal velocity.

The target of one data set is T1, PfkA (Bacillus subtilis, UniProt O34529).
T1 construct: full-length, N-terminal His6-Gly3 tag (from primer), recombinant in E. coli BW25113, pTrc99KK, Ni-NTA
T1 sequence (O34529 2-319): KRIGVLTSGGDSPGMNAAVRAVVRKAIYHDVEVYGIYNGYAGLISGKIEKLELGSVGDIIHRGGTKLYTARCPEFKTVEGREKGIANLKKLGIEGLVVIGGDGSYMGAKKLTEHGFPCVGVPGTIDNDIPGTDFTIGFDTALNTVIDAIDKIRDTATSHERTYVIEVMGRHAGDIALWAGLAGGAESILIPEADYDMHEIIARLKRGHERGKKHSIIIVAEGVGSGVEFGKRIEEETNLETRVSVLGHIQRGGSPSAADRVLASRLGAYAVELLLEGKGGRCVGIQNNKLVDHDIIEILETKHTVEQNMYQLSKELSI
Briefly: coupled spectrophotometric assay, NADH at […] nm. The format is biochemical.

Substrate in the data set “purified protein”: CC(=O)C(=O)O
Briefly: purified protein. The format is biochemical, Bacillus subtilis. The following applies: 1 mM ATP, 0.05 mM acetyl-CoA, 15 mM KHCO3, 7 mM MgSO4, 135 mM TEA pH 8, room temperature, pyruvate 0.04-5.0 mM.

Regarding `C=C(OP(=O)(O)O)C(=O)O` [PEP, phosphoenolpyruvate], on PfkA, the Ki came to 40 µM.

B1: PycA (Bacillus subtilis subsp. subtilis str. 168) (protein)
chain: SQQSIQKVLVANRGEIAIRIFRACTELNIRTVAVYSKEDSGSYHRYKADEAYLVGEGKKPIDAYLDIEGIIDIAKRNKVDAIHPGYGFLSENIHFARRCEEEGIVFIGPKSEHLDMFGDKVKAREQAEKAGIPVIPGSDGPAETLEAVEQFGQANGYPIIIKASLGGGGRGMRIVRSESEVKEAYERAKSEAKAAFGNDEVYVEKLIENPKHIEVQVIGDKQGNVVHLFERDCSVQRRHQKVIEVAPSVSLSPELRDQICEAAVALAKNVNYINAGTVEFLVANNEFYFIEVNPRVQVEHTITEMITGVDIVQTQILVAQGHSLHSKKVNIPEQKDIFTIGYAIQSRVTTEDPQNDFMPDTGKIMAYRSGGGFGVRLDTGNSFQGAVITPYYDSLLVKLSTWALTFEQAAAKMVRNLQEFRIRGIKTNIPFLENVAKHEKFLTGQYDTSFIDTTPELFNFPKQKDRGTKMLTYIGNVTVNGFPGIGKKEKPAFDKPLGVKVDVDQQPARGTKQILDEKGAEGLANWVKEQKSVLLTDTTFRDAHQSLLATRIRSHDLKKIANPTAALWPELFSMEMWGGATFDVAYRFLKEDPWKRLEDLRKEVPNTLFQMLLRSSNAVGYTNYPDNVIKEFVKQSAQSGIDVFRIFDSLNWVKGMTLAIDAVRDTGKVAEAAICYTGDILDKNRTKYDLAYYTSMAKELEAAGAHILGIKDMAGLLKPQAAYELVSALKETIDIPVHLHTHDTSGNGIYMYAKAVEAGVDIIDVAVSSMAGLTSQPSASGFYHAMEGNDRRPEMNVQGVELLSQYWESVRKYYSEFESGMKSPHTEIYEHEMPGGQYSNLQQQAKGVGLGDRWNEVKEMYRRVNDMFGDIVKVTPSSKVVGDMALYMVQNNLTEKDVYEKGESLDFPDSVVELFKGNIGQPHGGFPEKLQKLILKGQEPITVRPGELLEPVSFEAIKQEFKEQHNLEISDQDAVAYALYPKVFTDYVKTTESYGDISVLDTPTFFYGMTLGEEIEVEIERGKTLIVKLISIGEPQPDATRVVYFELNGQPREVVIKDESIKSSVQERLKADRTNPSHIAASMPGTVIKVLAEAGTKVNKGDHLMINEAMKMETTVQAPFSGTIKQVHVKNGEPIQTGDLLLEIEKA
notes: full-length, N-terminal His6-Gly3 tag (from primer), recombinant in E. coli BW25113, pTrc99KK, Ni-NTA
For B1, in “purified protein”, the Km was 100 µM.
